Results from patent publication US20220265597A1, “ANTIVIRAL EFFECTS OF NARASIN IN SWINE FEED” (Elanco US Inc., priority 2014, published 2022).
Marks after values point to notes of the source that are not given here.

Assays:
PEDV [1] = experiment: Growth performance of nursery pigs challenged with PEDV, narasin in feed; assay type: in vivo, pig; conditions: for numerical increase of overall ADG compared to the control / numerical increase of overall G:F compared to the control: overall (Day 0 to 14)
From the text: Eighty-one weaning stage (21.8+/−0.6 days) commercial crossbred piglets (Wilson's Prairie View Farms, Burlington, Wis.) free of PEDV infection arrived at the site and six were used as potential replacement animals during the pre-challenge period (Day −7 to Day 0). Six piglets were removed at Day 0 immediately prior to PEDV challenge, resulting in fifteen pens containing five piglets/pen (n=75) animals. There were five pens per treatment. For balance of sentinel piglets within a block, a total of thirty-nine piglets of one gender and thirty-six of the other gender were used. The use of five pens (twenty-five piglets) per treatment group was estimated to detect significant differences (P<0.10) between treatment groups in growth performance and incidence of viral shedding.
(§1) The seventy-five piglets were randomly assigned to one of three treatment groups: control (no ionophore), narasin (30 mg/kg) and narasin (60 mg/kg). They acclimatized to their environment and were fed daily for seven days prior to exposure with PEDV on Day 0. Treatment continued for 14 days following challenge. Pigs from the three treatment groups were administered orally with 4×10^4 TCID50/mL of the PEDV isolate PEDV/USA/NC/2013/49469 (College of Veterinary Medicine, Iowa State University). The piglets were monitored daily for changes in clinical parameters, clinical score for diarrhea, depression and gauntness, rate of food consumption, and rate of body weight change and viral swabs were taken daily to determine viral shedding.
Viral shedding values was evaluated by RMANOVA and the PROC MIXED procedure of SAS (SAS, Cary, N.C.). Other variables for analysis included growth performance data (average daily gain, or ADG; average daily feed intake, or ADFI; and feed efficiency (unit of weight gain per unit of feed consumed), or G:F), incidence and severity of diarrhea, depression, and gauntness scores, and intestinal histology score and immunohistochemistry. The analysis of the growth performance outcomes were conducted using a generalized linear mixed model and the PROC MIXED procedure of SAS.
Diet formulations were manufactured at Provimi (Lewisburg, Ohio) and fed in meal form.
The effects of narasin inclusion level on mean body weights (BW), average daily weight gain (ADG), average daily feed intake (ADFI), feed efficiency (G:F), and feed conversion ratio (F:G) are shown in Table 1.

PEDV [2] = experiment: Enteric clinical observation scoring (diarrhea, depression, gauntness) of nursery pigs challenged with PEDV; assay type: in vivo, pig; conditions: 0, 30, 60 mg/kg feed; 14-d period
Method: as §1
Incidence and severity of the score data (diarrhea, depression, and gauntness) were summarized by frequencies and mean scores on a daily basis.
Table 2 indicates the scoring system used to measure diarrhea, depression, and gauntness. Table 3 compares the mean scores for diarrhea, depression and gauntness in nursery pigs whose diet included 0, 30 or 60 mg/kg narasin.

[3] = 60 mg/kg feed, Day 0 to 5, P<0.10

SMILES: CC[C@@H](C(=O)O)[C@@H]1O[C@@H]([C@@H](C)[C@H](O)[C@H](C)C(=O)[C@H](CC)[C@H]2O[C@]3(C=C[C@@H](O)[C@]4(CC[C@@](C)([C@H]5CC[C@](O)(CC)[C@H](C)O5)O4)O3)[C@H](C)C[C@@H]2C)[C@@H](C)C[C@@H]1C [narasin]
- effect of narasin level on overall growth performance (PEDV [1]; 0, 30, 60 mg/kg feed, Day 0 to 14, P>0.10): no effect
- differences for ADG, ADFI, G:F, or F:G (PEDV [1]; 0, 30, 60 mg/kg feed, Day 5 to 14): no statistical differences
- BW (PEDV [1]; 30 mg/kg feed, Day 0 (PEDV challenge)): 16.9 lb
- ADFI (PEDV [1]; 30 mg/kg feed, Day 0 to 5): 0.68 lb
- ADG (PEDV [1]; 30 mg/kg feed, Day 0 to 5): 0.38* lb
- F:G (PEDV [1]; 30 mg/kg feed, Day 0 to 5): 1.93 lb:lb
- G:F (PEDV [1]; 30 mg/kg feed, Day 0 to 5): 0.551 lb:lb
- increase of ADG compared to the control (PEDV [1]; 30 mg/kg feed, Day 0 to 5, P<0.10): 58.3%
- ADFI (PEDV [1]; 30 mg/kg feed, Day 0 to 14): 1.00 lb
- ADG (PEDV [1]; 30 mg/kg feed, Day 0 to 14): 0.70 lb
- F:G (PEDV [1]; 30 mg/kg feed, Day 0 to 14): 1.48 lb:lb
- G:F (PEDV [1]; 30 mg/kg feed, Day 0 to 14): 0.711 lb:lb
- BW (PEDV [1]; 30 mg/kg feed, Day 5): 18.7 lb
- ADFI (PEDV [1]; 30 mg/kg feed, Day 5 to 14): 1.23 lb
- ADG (PEDV [1]; 30 mg/kg feed, Day 5 to 14): 0.92 lb
- F:G (PEDV [1]; 30 mg/kg feed, Day 5 to 14): 1.38 lb:lb
- G:F (PEDV [1]; 30 mg/kg feed, Day 5 to 14): 0.772 lb:lb
- BW (PEDV [1]; 30 mg/kg feed, Day 14): 26.9 lb
- BW (PEDV [1]; 30 mg/kg feed, Day −7 (arrival, allotment)): 14.9* lb
- ADFI (PEDV [1]; 30 mg/kg feed, Day −7 to 0): 0.37 lb
- ADG (PEDV [1]; 30 mg/kg feed, Day −7 to 0): 0.29 lb
- F:G (PEDV [1]; 30 mg/kg feed, Day −7 to 0): 1.33 lb:lb
- G:F (PEDV [1]; 30 mg/kg feed, Day −7 to 0): 0.802 lb:lb
- numerical increase of overall ADG compared to the control (PEDV [1]; 30 mg/kg feed): 7.7%
- numerical increase of overall G:F compared to the control (PEDV [1]; 30 mg/kg feed): 7.9%
- BW (PEDV [1]; 60 mg/kg feed, Day 0 (PEDV challenge)): 16.7 lb
- ADFI (PEDV [1]; 60 mg/kg feed, Day 0 to 5): 0.71 lb
- ADG (PEDV [1]; 60 mg/kg feed, Day 0 to 5): 0.48* lb
- F:G (PEDV [1]; 60 mg/kg feed, Day 0 to 5): 1.56 lb:lb
- G:F (PEDV [1]; 60 mg/kg feed, Day 0 to 5): 0.670* lb:lb
- increase of ADG compared to the control (PEDV [1]; [3]): 100%
- increase of G:F compared to 0 mg/kg narasin (PEDV [1]; [3]): 78.7%
- ADFI (PEDV [1]; 60 mg/kg feed, Day 0 to 14): 1.01 lb
- ADG (PEDV [1]; 60 mg/kg feed, Day 0 to 14): 0.70 lb
- F:G (PEDV [1]; 60 mg/kg feed, Day 0 to 14): 1.44 lb:lb
- G:F (PEDV [1]; 60 mg/kg feed, Day 0 to 14): 0.698 lb:lb
- BW (PEDV [1]; 60 mg/kg feed, Day 5): 19.2 lb
- ADFI (PEDV [1]; 60 mg/kg feed, Day 5 to 14): 1.22 lb
- ADG (PEDV [1]; 60 mg/kg feed, Day 5 to 14): 0.85 lb
- F:G (PEDV [1]; 60 mg/kg feed, Day 5 to 14): 1.42 lb:lb
- G:F (PEDV [1]; 60 mg/kg feed, Day 5 to 14): 0.708 lb:lb
- BW (PEDV [1]; 60 mg/kg feed, Day 14): 26.9 lb
- BW (PEDV [1]; 60 mg/kg feed, Day −7 (arrival, allotment)): 14.9* lb
- ADFI (PEDV [1]; 60 mg/kg feed, Day −7 to 0): 0.36 lb
- ADG (PEDV [1]; 60 mg/kg feed, Day −7 to 0): 0.26* lb
- F:G (PEDV [1]; 60 mg/kg feed, Day −7 to 0): 1.38 lb:lb
- G:F (PEDV [1]; 60 mg/kg feed, Day −7 to 0): 0.742 lb:lb
- decrease of ADG compared to the control (PEDV [1]; 60 mg/kg feed, Day −7 to 0, P<0.10): 18.8%
- numerical increase of overall ADG compared to the control (PEDV [1]; 60 mg/kg feed): 7.7%
- numerical increase of overall G:F compared to the control (PEDV [1]; 60 mg/kg feed): 5.9%
- effect of narasin level on mean of depression scores (PEDV [2]): not affected
